Measurements published in PMC4432651, “Dynamic interplay between catalytic and lectin domains of GalNAc-transferases modulates protein O-glycosylation” (Nature Communications, 2015).
Where a SMILES comes first, the peptide text is derived from it. The star is where a group is joined. αGalNAc = CC(=O)N[C@@H]1[C@@H](O)[C@@H](O)[C@@H](CO)O[C@@H]1*

How the values were obtained:
GalNAc-T2 [1] = biological target: T1, GalNAc-T2 (Homo sapiens, UniProt Q10471); experiment: X-ray crystal structures of GalNAc-T2 complexes; format: binding; conditions: co-crystallization with UDP and Mn+2; flexible loop conformation
T1 construct: made in house
T1 sequence (Q10471 75-571 limits assumed): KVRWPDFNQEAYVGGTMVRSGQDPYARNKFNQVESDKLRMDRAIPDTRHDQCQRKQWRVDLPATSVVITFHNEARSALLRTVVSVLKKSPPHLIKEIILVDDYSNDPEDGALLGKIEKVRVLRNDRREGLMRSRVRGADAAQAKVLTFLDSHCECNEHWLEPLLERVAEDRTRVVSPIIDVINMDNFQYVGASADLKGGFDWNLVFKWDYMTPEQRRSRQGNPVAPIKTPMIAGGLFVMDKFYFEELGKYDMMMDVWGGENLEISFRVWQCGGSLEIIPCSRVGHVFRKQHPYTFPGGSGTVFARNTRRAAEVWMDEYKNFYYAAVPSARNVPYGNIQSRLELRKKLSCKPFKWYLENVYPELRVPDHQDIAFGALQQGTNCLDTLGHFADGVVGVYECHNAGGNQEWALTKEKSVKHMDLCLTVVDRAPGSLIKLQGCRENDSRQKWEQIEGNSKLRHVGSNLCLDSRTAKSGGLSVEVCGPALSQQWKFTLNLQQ
Description: In all cases, crystals were grown by hanging drop vapour diffusion at 18 °C. […] The protein solution consisting of 3.5 mg ml^−1 of GalNAcT-2, 5 mM UDP, 5 mM MnCl2 and 6 mM MUC5AC-13 in the same buffer described above was mixed with the precipitant solution containing 1.6 M ammonium sulfate, 100 mM sodium chloride and 100 mM HEPES (pH 7). The crystals were cryoprotected in saturated lithium sulfate and frozen in a nitrogen gas stream cooled to 100 K.
All data were processed and scaled using the XDS package[34] and CCP4 software. The crystal structures were solved by molecular replacement with Phaser[35] and using the PDB entry 4D0T as the template. Initial phases were further improved by cycles of manual model building in Coot[36] and refinement with REFMAC5 (ref. [37]). The AUs of the tetragonal crystals contain 1 molecule of GalNAc-T2 (Fig. 1). Coordinates and structure factors have been deposited in the Worldwide Protein Data Bank (wwPDB, and see Table 1 for the pdb codes).

GalNAc-T2 [2] = biological target: T1, GalNAc-T2; experiment: SAXS with Ensemble Optimization Method: GalNAc-T2 conformations/oligomers with ligands; conditions: GalNAc-T2 5 mg/ml, 25 mM TRIS pH 7.5, 10 mM MnCl2, 10 °C; for Dmax: maximum intramolecular distance, GNOM; on all read-outs here: values in Å
Description: SAXS measurements were performed at the European Molecular Biology Laboratory on the storage ring PETRA-III (DESY-Hamburg) on the P12 beamline equipped with a robotic sample changer and a PILATUS-2M. The analysis of the SAXS data was performed by using the EOM[31]. Additional details are in Supplementary Methods. […]
Small-angle X-ray scattering (SAXS) and data analysis
All experiments were performed in a buffer consisting of 25 mM TRIS pH 7.5, 10 mM MnCl2. The first set of experiments contained three different protein concentrations: 10 mg/ml (180 µM), 5 mg/ml (90 µM), 2.5 mg/ml (45 µM) and 1 […]
mg/ml (18 µM). The protein was measured alone and in the presence of ten times molar excess of UDP, UDP-GalNAc, UDP-EA2 peptide, MUC5AC-13, UDP-MUC5AC-13, MUC5AC, and UDP-MUC5AC. The second set of experiments was carried out with the protein concentration fixed at 5 mg/ml, and increasing concentrations of UDP (450 µM, 900 µM, 1.8 mM, 4.5 mM and 9 mM). The concentration of MUC5AC-13 was also changed as follows: 1 mM, 5 mM and 7.5 […]
Synchrotron SAXS measurements were performed at the European Molecular
Biology Laboratory (EMBL) on the storage ring PETRA-III (DESY-Hamburg) on the P12 beamline equipped with a robotic sample changer and a PILATUS-2M. The sample-detector distance was 3.1 m. The scattering intensity, I(s), was recorded at 10 °C in a momentum transfer range of 0.007<s<0.444 Å -1, where s = (4πsinθ )/λ , 2θ is the scattering angle, and λ = 1.24 Å is the X-ray wavelength. Twenty consecutive 0.05 second measurements were performed for protein samples and buffers to monitor for radiation damage that were subsequently averaged (no systematic radiation effects were observed). Buffer scattering profiles were subtracted from the sample ones using standard procedures 8. The values of the forward scattering, I(0), and radii of gyration, Rg, were calculated from the experimental SAXS patterns using Guinier’s approximation (Supplementary Fig. 4 and 5), I(s) = I(0)exp(-s2Rg2/3), which is valid in the range sRg < 1.3.
Structural analysis of the SAXS data was performed using the Ensemble Optimization Method (EOM)9. A pool of 10,000 monomeric structures of GalNac-T2 was constructed with the program RanCh9 by connecting three-dimensional structures of the catalytic and the lectin domains, extracted from the crystallographic structure 2FFU, with a flexible linker of 12 residues with random coil conformations. To […]
properly describe the data, these monomeric ensembles were enriched with 100 equivalent curves corresponding to one dimeric arrangement. As we tested three dimers, we built three different ensembles with the same 10,000 monomeric conformations and 100 copies of each one of the dimers. The three different dimers used for SAXS are shown in Supplementary Fig. 3c and correspond to three different crystal structures obtained under different conditions.
The scattering profiles of all members of the pool were computed with the program CRYSOL using standard parameters10. The pool of structures/profiles was submitted to the genetic algorithm (GA) with the aim to select a subensemble of 50 structures/curves with the capacity to collectively describe the experimental SAXS […]
was repeated 200 times starting from different randomly selected subensembles, and the resulting solutions were analysed together. The same pool was used to describe all the measured data. Results were quantitatively analysed by displaying the Rg distributions of the selected ensembles and the relative population of monomeric and dimeric species.
Three different dimeric arrangements were introduced individually in the pool. In all three cases the dimers display similar contacts between the lectin domains and the lectin domain of one monomer with the catalytic domain of a second monomer (Supplementary Fig. 3c). We can distinguish the crystallographic dimers by the buried area parameter inferred from the PISA server. The dimers present in the crystal structure of GalNAc-T2-UDP complex (PDB entry 2FFV) are the most compact ones […]

GalNAc-T2 [3] = biological target: T1, GalNAc-T2; experiment: Tryptophan fluorescence spectroscopy, dissociation constants of GalNAc-T2 against peptides; format: binding; conditions: Kd in the absence of UDP/Mn+2 compared with presence of the nucleotide
Description: All experiments were carried out in a Cary Eclipse spectrofluorometer (Varian) at 25 °C with GalNAc-T2 at 1 μM, and concentrations of peptides varying from 1 to 500 μM in 25 mM Tris, 150 mM NaCl, pH 7.5. The same experiments were also performed in the same buffer but containing 400 μM UDP and 1 mM MnCl2. Fluorescence emission spectra were recorded in the 300–400 nm range with an excitation wavelength of 280 nm, with slit width of 5 nm. The data analysis was performed in Prism (GraphPad software) considering a model with a single binding site (see equation (1), where F0 is the intrinsic fluorescence of the enzyme in the absence of quencher (Q), F1 is the observed fluorescence at a given quencher concentration, fa is the fractional degree of fluorescence and Kd is the dissociation constant.

GalNAc-T2 [4] = biological target: T1, GalNAc-T2; experiment: Time-lapse AFM of single GalNAc-T2 molecules with ligands; conditions: in the presence of Mn+2; GalNAc-T2 2.0 nM on mica, UDP, UDP-GalNAc and MnCl2 20.0 nM, PBS pH 7.4, 20 °C
Description: AFM measurements were performed using a MultiMode 8 AFM system (Bruker). […] Additional details are in Supplementary Methods. […]
simulations were performed with the acceptor amino acid – UDPGalNAc distance and the RMSD of the Cα peptide carbon atoms as collective variables.
The values of the height and width of the Gaussian-like biasing potential were selected as 1.0 kcal·mol -1 and 0.25 Å, respectively. A temperature window of ΔT = 25000 K for the well-tempered algorithm was used together with a deposition time of 1 ps. The simulation was continued until the system completely explored the free energy landscape several times which, in terms of the simulation time, corresponds to approximately 100 ns for each metadynamics run.
Atomic Force Microscopy Imaging
In Tapping Mode image operation the cantilever driven by a piezoelectric actuator vibrates near its resonance frequency. Upon approaching the sample, the tip briefly touches the surface at the bottom of each swing, resulting in a decrease in oscillation amplitude. […]
AFM scanning requires the sample be immobilized on a nanoflat surface not to be swept away. […] The concentration of the protein incubated on the mica sheets was suitable to get isolated features that could be analyzed individually. […]
GalNAc-T2 presents a net positive charge at the working pH conditions due to its theoretical isoelectric point of 8.3. The immobilization of enzymes on mica was previously evaluated observing clearly they preserve the enzymatic activity5.
To determine how the ligands affect the conformational dynamics of GalNAc-T2, the enzyme was also incubated with ligands for 10 min under mild stirring at room temperature. […] AFM images were further analyzed by using the WSxM software6. […] At least 10 images of 10 different areas of 500 nm2 were analyzed for every sample and environment. Furthermore, each feature or associate was analyzed in detail with the zoom function of the WSxM program, performed without losing image information and or the discarding of artifacts. […]

[5] = ligand molar ratio GalNAc-T2:ligand 1:10

Rg (Guinier) (GalNAc-T2 [2]; peptide + UDP (1:10)) | Rg from p(r) (GNOM) (GalNAc-T2 [2]; peptide + UDP (1:10)) | Dmax (GalNAc-T2 [2]; peptide + UDP (1:10)) | Kd in the absence vs presence of UDP/Mn+2 (GalNAc-T2 [3]) | SMILES | form of GalNAc-T2 bound in crystal (GalNAc-T2 [1]) | Rg from p(r) (GNOM) (GalNAc-T2 [2]; ligand molar ratio 1:10) | Dmax (GalNAc-T2 [2]; ligand molar ratio 1:10) | Rg (Guinier) (GalNAc-T2 [2]; [5]) | conformational states of GalNAc-T2 observed (GalNAc-T2 [4])
– | – | – | – | CC(=O)N[C@H]1[C@@H](O[C@H](C)[C@H](NC(=O)[C@@H](NC(=O)[C@H](CO)NC(=O)[C@@H](NC(=O)[C@@H](NC(=O)[C@@H]2CCCN2C(=O)[C@@H](NC(=O)[C@@H]2CCCN2C(=O)[C@H](CO)NC(=O)[C@@H]2CCCN2C(=O)[C@@H](NC(=O)[C@@H](NC(=O)CN)[C@@H](C)O)[C@@H](C)O[C@H]2O[C@H](CO)[C@H](O)[C@H](O)[C@H]2NC(C)=O)C(C)C)[C@@H](C)O)[C@@H](C)O)[C@@H](C)O)C(=O)N[C@@H](CO)C(=O)N[C@@H](C)C(N)=O)O[C@H](CO)[C@H](O)[C@@H]1O [MUC5AC-3-13] (H-GTT(αGalNAc)PSPVPTTSTT(αGalNAc)SA-NH2; N-terminus assumed) | bound to the inactive form of GalNAc-T2 | – | – | – | –
32.0±0.2 Å | 33.3 Å | 120 Å | fourfold better | CC(=O)NCC(=O)N[C@H](C(=O)N[C@H](C(=O)N1CCC[C@H]1C(=O)N[C@@H](CO)C(=O)N1CCC[C@H]1C(=O)N[C@H](C(=O)N1CCC[C@H]1C(=O)N[C@H](C(=O)N[C@H](C(=O)N[C@@H](CO)C(=O)N[C@H](C(=O)N[C@H](C(=O)N[C@@H](CO)C(=O)N[C@@H](C)C(N)=O)[C@@H](C)O)[C@@H](C)O)[C@@H](C)O)[C@@H](C)O)C(C)C)[C@@H](C)O)[C@@H](C)O [MUC5AC] (Ac-GTTPSPVPTTSTTSA-NH2; N-terminus assumed) | – | 33.4 Å | 120 Å | 32.3±0.3 Å | –
– | – | – | – | CC(=O)N[C@H]1[C@@H](OP(=O)(O)OP(=O)(O)OC[C@H]2O[C@@H](n3ccc(=O)[nH]c3=O)[C@H](O)[C@@H]2O)O[C@H](CO)[C@H](O)[C@@H]1O [UDP-GalNAc, uridine diphosphate N-acetylgalactosamine, reference compound] | – | 34.6 Å | 124 Å | 34.7±0.4 Å | either the very compact or the compact structure
